Target: T1, full-length PPARγ (Homo sapiens, UniProt P37231)
T1 construct: host or cells: HEK293T
Assay: Full-length PPARγ reporter gene assay
Assay type: cell-based
Description: HEK293T cells were grown in DMEM high glucose, supplemented with 10% FCS, sodium pyruvate (1 mM), penicillin (100 U/mL) and streptomycin (100 μg/mL) at 37 °C and 5% CO2. The day before transfection, HEK293T cells were seeded in 96-well plates (3·10^4 cells/well). Before transfection, medium was changed to Opti-MEM without supplements. […] 5 h after transfection, medium was changed to Opti-MEM supplemented with penicillin (100 U/mL), streptomycin (100 μg/mL), now additionally containing 0.1% DMSO and the respective test compound or 0.1% DMSO alone as untreated control. Each concentration was tested in duplicates and each experiment was repeated independently at least three times. Following overnight (12-14 h) incubation with the test compounds, cells were assayed for luciferase activity using Dual-Glo™ Luciferase Assay System (Promega) according to the manufacturer’s protocol. Luminescence was measured with an Infinite M200 luminometer (Tecan Deutschland GmbH). […] Fold activation was obtained by dividing the mean RLU of a test compound at a respective concentration by the mean RLU of untreated control.

T1 sequence (P37231 whole entry): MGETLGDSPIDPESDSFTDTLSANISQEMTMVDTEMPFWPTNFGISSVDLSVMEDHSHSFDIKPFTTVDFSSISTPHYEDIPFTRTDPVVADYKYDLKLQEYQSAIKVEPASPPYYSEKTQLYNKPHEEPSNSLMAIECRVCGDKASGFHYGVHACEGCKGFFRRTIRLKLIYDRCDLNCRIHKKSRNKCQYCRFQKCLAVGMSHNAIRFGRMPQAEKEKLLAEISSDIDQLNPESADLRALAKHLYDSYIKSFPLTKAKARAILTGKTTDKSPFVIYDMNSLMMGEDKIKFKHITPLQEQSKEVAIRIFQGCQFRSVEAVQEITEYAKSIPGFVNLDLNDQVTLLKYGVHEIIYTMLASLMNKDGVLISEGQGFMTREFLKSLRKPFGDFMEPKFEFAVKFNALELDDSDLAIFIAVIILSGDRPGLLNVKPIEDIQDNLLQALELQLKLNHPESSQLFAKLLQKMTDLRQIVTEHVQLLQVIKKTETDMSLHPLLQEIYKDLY

Which results are given for `O=C(O)CSc1nnc(Br)n1-c1ccc(C2CC2)c2ccccc12` [lesinurad]?
transactivation efficacy on full-length PPARγ (compared to reference agonists): higher transactivation efficacy than pioglitazone and rosiglitazone; EC50 (full-length human PPARγ, HEK293T, mean ± SEM): 21 ± 2 µM

Reference: PMC6131501, “Urate transporter inhibitor lesinurad is a selective peroxisome proliferator-activated receptor gamma modulator (sPPARγM) in vitro” (Scientific Reports, 2018)
